Laboratory results reported in patent publication US12227533B2, “Crystalline forms and methods of producing crystalline forms of a compound” (Viking Therapeutics, Inc., priority 2018, dated 2025).
≈ marks a conversion by molar mass, not a printed value.

Assays:
Format in all cases: physicochemical
[1] = Storage in humidity chamber at 96% r.h., solid form checked by XRPD; details: for solid form by XRPD after storing in humidity chamber: 96% r.h.
Experimental: Desolvation of the solvates tends to produce the amorphous form.
(§1) (approx. ±0.1%). After storing for 3 days at 96% r.h. at room temperature (Test 49), FIG. 29a, and at 40° C. […] The water uptake measured by the Karl Fischer method was very low (<0.2%). […] The broad background in the XRPD diagram, FIG. 26, is due to water remaining in the sample after careful drying at room temperature following filtration of the suspension. The Karl Fischer result indicates 45% water content.

[2] = Measurement of the approximate solubility at ambient temperature; details: organic solvent or mixture, 23° C.
Experimental: In some embodiments, to determine the approximate solubility at room temperature, solvent was added in steps to the solid material. After every addition, the sample was well stirred. The addition of solvent was continued until complete dissolution or until 20 ml of solvent was added.
In other embodiments, aliquots of the test solvent were added to an accurately weighed amount of the compound of Formula I in small increments (usually 100-1000 μL), with sonication until complete dissolution was obtained, if possible. Dissolution was determined visually. The actual solubilities may be higher than reported due to slow dissolution rates or the use of excess solvent. The approximate solubility was determined in mg/mL to the nearest whole number.
The approximate solubility at ambient temperature must be known in order to carry out systematic crystallization experiments.

[3] = Phase equilibration experiment in water, solid form checked by XRPD; details: stirring 3 days, 23° C. (room temperature)
Experimental: as §1

[4] = Karl Fischer moisture analysis after humidity storage; details: after storing 3 days at 96% r.h.
Experimental: as §1, with “Karl Fischer moisture analyses were carried out according to standard procedures. […] (approx.” for “(approx.”

[5] = Phase equilibration experiments in EtOAc/heptane 1:7 v/v; details: 3 days
[6] = Dynamic vapor sorption (DVS)
Experimental: The sample (9.869 mg) was placed on a Pt pan, and the sample was allowed to equilibrate at 25° C. at 50% relative humidity (r.h.) before starting a pre-defined humidity program. The predefined humidity programs include 1.0 hours 50%, from 50% r.h. to 0% r.h.; 5% r.h. per hour, 5 hours at 0% r.h., from 0% r.h. to 93% r.h.; 5% r.h. per hour, 5 hours at 93% r.h., from 93% r.h. to 50% r.h.; and 5% r.h. per hour, 1 hours at 50% r.h.
as §1

## Cc1cc(OC[P@@]2(=O)OCC[C@@H](c3cccc(Cl)c3)O2)cc(C)c1Cc1ccc(O)c(C(C)C)c1 [THF solvate]
[1]; 23° C. (room temperature), 8 weeks
  solid form by XRPD after storing in humidity chamber: a mixture of the solvate and the amorphous form

## Cc1cc(OC[P@@]2(=O)OCC[C@@H](c3cccc(Cl)c3)O2)cc(C)c1Cc1ccc(O)c(C(C)C)c1 [Starting Material A]
[2]; methyl ethyl ketone, thermodynamic from solid, methy ethyl ketone
  solubility: > 480 mg/mL
[2]; thermodynamic from solid, 1-octanol
  solubility: > 200 mg/mL
[2]; thermodynamic from solid, 2,2,2-trifluoroethanol
  solubility: ~195 mg/mL (≈ 379 mM)
[2]; thermodynamic from solid, EtOAc
  solubility: ~772 mg/mL (≈ 1500 mM)
[2]; thermodynamic from solid, EtOAc/n-heptane 75:25 v/v
  solubility: > 200 mg/mL
[2]; thermodynamic from solid, N-methyl-2-pyrrolidone (NMP)
  solubility: > 200 mg/mL
[2]; thermodynamic from solid, THF
  solubility: > 384 mg/mL
[2]; thermodynamic from solid, THF/water 75:25 v/v
  solubility: 190 mg/mL (≈ 369 mM)
[2]; thermodynamic from solid, acetic acid
  solubility: > 200 mg/mL
[2]; thermodynamic from solid, acetone/n-heptane 75:25 v/v
  solubility: > 200 mg/mL
[2]; thermodynamic from solid, acetone/water 75:25 v/v
  solubility: > 200 mg/mL
[2]; thermodynamic from solid, acetonitrile
  solubility: > 480 mg/mL
[2]; thermodynamic from solid, acetonitrile/water 75:25 v/v
  solubility: > 200 mg/mL
[2]; thermodynamic from solid, chloroform
  solubility: > 388 mg/mL
[2]; thermodynamic from solid, dichloromethane
  solubility: > 480 mg/mL
[2]; thermodynamic from solid, ethanol
  solubility: > 200 mg/mL
[2]; thermodynamic from solid, ethanol/n-heptane 75:25 v/v
  solubility: > 200 mg/mL
[2]; thermodynamic from solid, ethanol/water 75:25 v/v
  solubility: > 200 mg/mL
[2]; thermodynamic from solid, methyl nonafluorobutyl ether
  solubility: < 39 mg/mL
[2]; thermodynamic from solid, methylcyclohexane
  solubility: < 40 mg/mL
[2]; thermodynamic from solid, n-heptane
  solubility: < 38 mg/mL
[2]; thermodynamic from solid, nitrobenzene
  solubility: > 200 mg/mL
[2]; thermodynamic from solid, pyridine
  solubility: > 200 mg/mL
[2]; thermodynamic from solid, tert-butyl methyl ether (TBME)
  solubility: > 200 mg/mL
[2]; thermodynamic from solid, tetrahydrofuran (THF)/n-heptane 75:25 v/v
  solubility: > 200 mg/mL
[2]; thermodynamic from solid, toluene
  solubility: > 200 mg/mL

## Cc1cc(OC[P@@]2(=O)OCC[C@@H](c3cccc(Cl)c3)O2)cc(C)c1Cc1ccc(O)c(C(C)C)c1 [Crystal form C]
[3]
  solid form by XRPD after phase equilibration in water: no transformation of the crystal form
[3]; listed as crystalline Form C
  solid form by XRPD after phase equilibration in water: no transformation
[4]
  water uptake measured by the Karl Fischer method: < 0.2%
[5]; 78° C.
  solid form after phase equilibration in EtOAc/heptane 1:7 v/v: no transformation
[5]; room temperature
  solid form after phase equilibration in EtOAc/heptane 1:7 v/v: no transformation
[6]; FIG. 29a
  water uptake (DVS): less than 0.2 % by weight
[6]; FIGS. 24 and 25
  solid form by XRPD following DVS analysis: did not transition to a different polymorph
[6]; conclusion from DVS and humidity tests
  hygroscopicity: non-hygroscopic
[1]; 23° C. (room temperature), 3 days
  solid form by XRPD after storing in humidity chamber: no transformation of the crystal form
[1]; 40° C., 3 days
  solid form by XRPD after storing in humidity chamber: no transformation of the crystal form
[1]; conclusion from DVS, humidity storage and water equilibration
  hydrate formation: does not show any evidence of hydrate formation
